Reference: patent US6465176B1, “Method for identifying compounds RNA/RNA binding protein interactions” (Message Pharmaceuticals, Inc., priority 1998, dated 2002)
Blank lines part the entries; values can stand above or below the compound they belong to.

How the values were obtained:
[1] = tested on: IRE RNA / RNA binding protein (K562 protein extract); experiment: High throughput filter binding assay, IRE RNA with K562 protein extract; details: increasing concentrations: hemin 1 to 100 μM, FeCl3 and desferroxiamine 1 μM to 1 mM
Text: FIG. 3 is a graph of the amount of radioactively labeled RNA retained on a filter (expressed in percent of the amount of RNA retained on a filter in a reference binding solution) following loading of various binding solutions. All of the binding solutions contained radioactively labeled IRE RNA either alone or including various other components. The first column represents a binding solution without RNA binding protein. The remaining columns represent binding solution containing RNA binding protein (K562 extract).
FIG. 5 is a graph of the amount of radioactively labeled RNA retained on a filter (expressed in percent of the amount of RNA retained on a filter in a reference binding solution) following loading of various binding solutions. Alternate columns correspond to binding solutions containing radioactively labeled AUUUA RNA or IRE RNA, either alone or including various other components. The first two column represents binding solutions without RNA binding protein. The remaining columns represent binding solution containing RNA binding protein (K562 extract). Columns 5 through 40 correspond to binding solutions including the indicated amount of the indicated test compound.
All binding reactions were performed in 96-well v-bottom plates in a final volume of 10 μl. The assays were constituted and performed as described below. Specifically, assays were performed by (1) forming a binding solution including RNA molecules, 7.5 mM BTP at pH 8.5, 10 mM KCl, 5 mM MgCl2, 0.2 mM DTT, and 10% glycerol, (2) heating the binding solution to denature the RNA molecules, (3) cooling the binding solution, (4) adding RNA binding proteins to the binding solution, (5) loading the binding solution onto a filter, and (6) detecting the amount RNA retain on the filter. […]
Binding assays were performed with wild-type IRE RNA and K562 protein extract in the presence of sources of iron or iron chelators to determine the ability of the filter assay to detect the modulation of binding interactions by small molecules. […] The reactions were analyzed by gel shifts to visualize the results of the filter assay. […]

[2] = tested on: His RNA / RNA binding protein; experiment: Filter binding competition assay, His RNA; details: increasing concentrations of unlabeled RNA
Method: (§1) All binding reactions were performed in 96-well v-bottom plates in a final volume of 10 μl. The assays were constituted and performed as described below. Specifically, assays were performed by (1) forming a binding solution including RNA molecules, 7.5 mM BTP at pH 8.5, 10 mM KCl, 5 mM MgCl2, 0.2 mM DTT, and 10% glycerol, (2) heating the binding solution to denature the RNA molecules, (3) cooling the binding solution, (4) adding RNA binding proteins to the binding solution, (5) loading the binding solution onto a filter, and (6) detecting the amount RNA retain on the filter.
To more fully test the filter assay, competitions were performed with U1 and His RNAs as well. U1 RNA has the sequence AAUCCAUUGCAC UCCGGAUUU (SEQ ID NO:10; M14587). His RNA has the sequence […] (SEQ ID NO:11; X57138). […] The results of the U1 and His filter assay competitions reflect the ability of the assay to detect low affinity as well as higher affinity binding interactions.
Competition studies have been performed using the filter assay in which unlabeled wild-type or mutant RNA is added to the reaction at 100 to 10,000 times the concentration of ^32P-RNA to compete for the protein binding of the radiolabeled RNA. […] In this case, the mutant RNA has a weak binding affinity for the RNA binding protein. […]

[3] = tested on: U1 RNA / RNA binding protein (K562 extract); experiment: Filter binding competition assay, U1 RNA; details: increasing concentrations of unlabeled RNA
Text: FIG. 2 is a graph of the amount of radioactively labeled RNA retained on a filter (expressed in percent of the amount of RNA retained on a filter in a reference binding solution) following loading of various binding solutions. All of the binding solutions contained radioactively labeled U1 RNA either alone or including various other components. The first two columns represent binding solutions without RNA binding protein. The remaining columns represent binding solution containing RNA binding protein (K562 extract). […] In this instance, the U1 mutant interacts with less affinity than does the wild type sequence.
as §1
To more fully test the filter assay, competitions were performed with U1 and His RNAs as well. U1 RNA has the sequence AAUCCAUUGCAC UCCGGAUUU (SEQ ID NO:10; M14587). His RNA has the sequence […] […]

[4] = tested on: AUUUA RNA / RNA binding protein (K562 extract); experiment: High throughput filter binding assay, 32P-labeled AUUUA RNA with K562 protein extract (exploratory library screen)
Text: FIG. 4 is a graph of the amount of radioactively labeled RNA retained on a filter (expressed in percent of the amount of RNA retained on a filter in a reference binding solution) following loading of various binding solutions. All of the binding solutions contained radioactively labeled AUUUA RNA either alone or including various other components. The first column represents a binding solution without RNA binding protein. The remaining columns represent binding solution containing RNA binding protein (K562 extract). Columns 3 through 8 correspond to binding solutions including the indicated test compound.
as §1
The library was initially screened at 10 μM against ^32P-labeled AUUUA RNA. Several methods of introducing the compounds into the binding reaction were tested. Initially the compounds were co-incubated with the RNA and protein, producing modest results. Next, preincubation with either the protein extract or the RNA was tried with improved results.
Seventeen compounds were chosen for further analysis at 100 nM, 1 μM and 10 μM using both AUUUA and IRE RNAs based on the results from three screening efforts (Exps. 29-31). Table 1 summarizes the results from these compounds at 10 μM. The results are also shown graphically in FIG. 4. […] Compounds D9 and H2, chosen as negative controls from the initial screening, continued to have no effect in the dose dependent screen (Exp. 33) and were identified as vehicle controls.
A 96 member random compound library was screened with the disclosed high throughput assay. The compounds were initially screened at 10 μM against ^32P-labeled AUUUA RNA. […] Seventeen compounds were chosen for further analysis at 100 nM, 1 μM and 10 μM using both AUUUA and IRE RNA molecules to determine if any selectivity of the compounds could be detected. […] Gel shifts of these compounds using AUUUA RNA confirmed the activity of the inhibitors.

TNF-α production = details: previously shown; cited from earlier work
[5] = compound 10 μM, K562 extract, RNA & K562 = 100.00

Compound: [Cl][Fe]([Cl])[Cl] [FeCl3]
- modulation of IRE/protein binding by small molecules [1]: concentration-dependent inhibition of binding

Compound: His wild-type RNA: His RNA, sequence AAAAAGGCUCUUUUCAGAGCCACCCA (SEQ ID NO:11) (listed as RNA, chemistry not given here)
- competition by unlabeled RNA for binding of labeled His RNA (filter assay) [2]: concentration dependent inhibition of binding

Compound: hemin
- modulation of IRE/protein binding by small molecules [1]: concentration-dependent inhibition of binding

Compound: CC(=O)N(O)CCCCCNC(=O)CCC(=O)N(O)CCCCCNC(=O)CCC(=O)N(O)CCCCCN [Desferroxiamine, desferroxiamine]
- modulation of IRE/protein binding by small molecules [1]: did not change the amount IRE/protein complex formed

Compound: U1 wild-type RNA: U1 RNA, sequence AAUCCAUUGCAC UCCGGAUUU (SEQ ID NO:10) (AAUCCAUUGCACUCCGGAUUU; listed as RNA, chemistry not given here)
- competition by unlabeled RNA for binding of labeled U1 RNA (filter assay) [3]: concentration dependent inhibition of binding

- Avg. % (labeled RNA retained on filter, average of Experiments #29-#31 and #33) ([4]; compound 10 μM, K562 extract): 111.00%
- Labeled RNA retained on filter, percent of RNA & K562 reference, Experiment #29 [4, 5]: 114.53%
- Labeled RNA retained on filter, percent of RNA & K562 reference, Experiment #30 [4, 5]: 66.94%
- Labeled RNA retained on filter, percent of RNA & K562 reference, Experiment #31 [4, 5]: 127.28%
- Labeled RNA retained on filter, percent of RNA & K562 reference, Experiment #33 [4, 5]: 135.24%
Compound: C/C(=N\NC(=N)N)c1cc(NC(=O)CCCCCCCCC(=O)Nc2cc(/C(C)=N/NC(=N)N)cc(/C(C)=N/NC(=N)N)c2)cc(/C(C)=N/NC(=N)N)c1 [Compound G10, CNI-1493]
- effect on counts over the 4 experiments ([4]; 10 μM): substantial increase in counts in 3 of the 4 experiments
- effect on TNF-α production (TNF-α production): post-transcriptionally inhibit TNF-α production
